From PubChem BioAssay AID687032 (Broad Institute, 2013)
Inconclusive results are not listed.

System: IOSE-T80 viability, CellTiterGlo ATP luminescence, 96 h
Experiment: cytotoxicity in IOSE-T80 ovarian epithelial cells, dose response, selectivity assay for PAX8 inhibitor project, cell-based, cherry-pick (AID 687032)

Structure (SMILES)	AC50 [nM]
CCOc1ccc(-n2c(=S)sc3c(=O)[nH]c(SCC(=O)NCC4CCCO4)nc32)cc1 (configuration not stated)	< 260
C[C@H](CO)N1C[C@H](C)[C@@H](CN(C)C(=O)Nc2ccnc(N3CCOCC3)c2)OCc2cnnn2CCCC1=O	< 260
O=C(NC1CCCCC1)C(c1cccnc1)N(C(=O)CCl)c1ccc(F)cc1 (configuration not stated)	10200
C[C@H]1CCCCO[C@H](CN(C)Cc2ccc(C(F)(F)F)cc2)[C@@H](C)CN([C@@H](C)CO)C(=O)c2cc(NC(=O)c3ccccc3)ccc2O1	32100
Cc1ccc(S(=O)(=O)N(C)C[C@@H]2Oc3cc(C#Cc4ccncc4)ccc3S(=O)(=O)N([C@H](C)CO)C[C@H]2C)cc1	3050
O=S(=O)(c1ccccc1F)N1CC[C@@H]2[C@@H](CO)Nc3ccc(C4=CCCCC4)cc3[C@@H]21	< 260
COc1ccc(S(=O)(=O)Nc2ccc3c(c2)C(=O)N([C@H](C)CO)C[C@H](C)[C@@H](CN(C)Cc2ccc(Cl)c(Cl)c2)OCCCC[C@@H](C)O3)cc1	6540
C[C@H](CO)N1C[C@H](C)[C@H](CN(C)S(=O)(=O)c2ccc(Cl)cc2)OCCCC[C@H](C)Oc2ccc(NS(=O)(=O)c3ccc(F)cc3)cc2C1=O	< 260
CCCC(=O)NC(c1ccc(C(C)C)cc1)c1ccc2cccnc2c1O (configuration not stated)	< 260
Cc1noc(C)c1S(=O)(=O)Nc1ccc2c(c1)C(=O)N([C@H](C)CO)C[C@H](C)[C@@H](CN(C)C(=O)Nc1ccc(C(F)(F)F)cc1)OCCCC[C@H](C)O2	23300
COc1cccc(N2CCN(C(=O)c3ccc(CS(=O)c4ccccc4Cl)o3)CC2)c1 (configuration not stated)	< 260
O=C(Nc1ccc(Cl)c(Cl)c1)N[C@@H]1CC[C@H](CCn2cc(C3CCCCC3)nn2)O[C@H]1CO	< 260
Nc1nc(=S)c2[nH]cnc2[nH]1	< 260
COc1cccc(-c2ccc([C@H]3[C@@H](CO)N(C(=O)Cc4ccccc4)[C@H]3C#N)cc2)c1	< 260
O=[N+]([O-])c1cccnc1S(=O)(=O)c1ccccc1	< 260
C#CCN(C[C@@H]1[C@@H](OC(=O)NCC2CCCCC2)[C@@H](OC(=O)NCC2CCCCC2)Cn2c(=O)ccc(=O)n21)S(=O)(=O)c1ccc(C)cc1	< 260
COc1ccc(S(=O)(=O)Nc2ccc3c(c2)CC(=O)N([C@@H](C)CO)C[C@@H](C)[C@@H](CN(C)Cc2ccc(-c4ccccc4)cc2)O3)cc1	< 260
COc1cc(OC)c2c(-c3cccc(-c4ccc(OC)c(F)c4)c3)cc(=O)oc2c1	10700
COc1ccc(CC2C(=O)NC(C)C(=O)N(C)C3Cc4ccc(cc4)Oc4cc(ccc4O)CC(C(=O)NC(C)C(=O)NC(C)C(=O)N2C)N(C)C3=O)cc1 (configuration not stated)	27800
O=C(C(=O)N(Cc1ccccc1)Cc1ccccc1)c1c(-c2ccccc2)[nH]c2ccccc12	< 260
COc1ccc(-c2nc3c(c(SCC(=O)Nc4cccc(O)c4)n2)Cc2c(CO)cnc(C)c2O3)cc1	8550

Structure (SMILES)	AC50 [nM]
CN1c2ccc(-c3cccc(F)c3)cc2[C@@H]2[C@@H](CCN2C(=O)Cc2ccccc2)[C@@H]1CO	< 260
C[C@@H]1CCCCO[C@@H](CN(C)Cc2ccc(C(F)(F)F)cc2)[C@@H](C)CN([C@@H](C)CO)C(=O)c2cc(NS(=O)(=O)c3ccc(F)cc3)ccc2O1	< 235
C=C(C)c1nc(Oc2ccccc2)nc(Oc2ccccc2)n1	< 260
C[C@@H]1CN([C@@H](C)CO)C(=O)Cc2cc(NS(=O)(=O)c3ccc(Cl)cc3)ccc2O[C@H]1CN(C)Cc1ccc(Oc2ccccc2)cc1	< 260
COc1ccc(CCNc2nnc(Sc3nnnn3-c3ccccc3)s2)cc1OC	8840
O=C(Nc1cccc(NC(=O)c2cccs2)c1)c1ccc([N+](=O)[O-])o1	8620
CC(C)(C)[C@H](N)C(=O)N[C@H]1CCC2C3CC=C4C[C@@H](O)CC[C@]4(C)C3CC[C@@]21C (some centres not stated)	< 260
C(=Cc1cnc2ccccc2n1)c1ccc2c(c1)OCO2	7890
COCCn1c(C)cc(C2=NNC(=NC3CC3)SC2)c1C	< 260
Cc1ccc(S(=O)(=O)Nc2cccc3c2O[C@@H](CN(C)Cc2ccc(Oc4ccccc4)cc2)[C@@H](C)CN([C@H](C)CO)C3=O)cc1	< 260
O=C(O)c1cccc(COc2ccc3c(c2)CCC3)c1	< 260
Cc1ccccc1CNC(=O)C1CCCN(c2nnc(C)c3c(C)n(-c4ccccc4)nc23)C1 (configuration not stated)	< 260
C[C@@H]1CN([C@H](C)CO)C(=O)c2cc(NC(=O)Nc3ccccc3)ccc2O[C@@H](C)CCCCO[C@@H]1CN(C)Cc1ccc(C(F)(F)F)cc1	< 260
C[C@H](CO)N1C[C@H](C)[C@@H](CN(C)S(=O)(=O)c2ccc(Cl)cc2)OCCCC[C@H](C)Oc2ccc(NS(=O)(=O)c3ccc(Cl)cc3)cc2C1=O	< 260
O=C1CN(C(=O)Cn2ncc(Cl)c(Cl)c2=O)c2ccccc2N1	< 260
O=S(=O)(NCC1CCCO1)c1cnc(Cl)c(Br)c1 (configuration not stated)	< 260
COc1ccc(Cn2cc3c(-c4ccc(F)cc4)nnc-3c3cc(OC)c(OC)cc32)cc1	8490
COc1ccc(F)cc1-c1cc(NC=O)c2ncc(-c3cc(OC)c(OC)c(OC)c3)n2c1	< 260
O=C(CCC(=O)c1ccccc1)NCCc1c[nH]c2ccccc12	< 260
CCCNC(=O)Nc1ccc2c(c1)OC[C@H](C)N(Cc1ccc(-c3ccccn3)cc1)C[C@@H](C)[C@@H](OC)CN(C)C2=O	< 260
COc1ccc(NC(=O)Nc2ccc3c(c2)C(=O)N([C@@H](C)CO)C[C@@H](C)[C@@H](CN(C)CC2CCCCC2)OCCCC[C@@H](C)O3)cc1	< 260

Structure (SMILES)	AC50 [nM]
COc1ccc(S(=O)(=O)Nc2ccc3c(c2)C(=O)N([C@@H](C)CO)C[C@H](C)[C@@H](CN(C)Cc2ccc(C(F)(F)F)cc2)OCCCC[C@H](C)O3)cc1	< 260
COc1ccc(-n2nc3c(N4CCC(C(=O)NCc5cccc(C)c5)CC4)nnc(C)c3c2C)cc1	< 260
C[C@@H]1CN([C@H](C)CO)S(=O)(=O)c2ccc(C#CC3CCCC3)cc2O[C@@H]1CN(C)C(=O)Cc1ccncc1	< 260
C[C@@H]1CCCCO[C@@H](CN(C)S(=O)(=O)c2ccc(Cl)cc2)[C@H](C)CN([C@H](C)CO)C(=O)c2cc(NS(=O)(=O)c3ccc(F)cc3)ccc2O1	< 260
C[C@]12CCC3C(CCC4=CC(O)CC[C@@]43/C=N/O)C1(O)CCC2C1=CC(=O)OC1 (some centres not stated)	< 260
C[C@@H]1CN([C@@H](C)CO)C(=O)Cc2cc(NC(=O)NC3CCCCC3)ccc2O[C@@H]1CN(C)Cc1ccc(-c2ccccc2)cc1	27800
CCN1CCN(c2nc(-c3cccs3)nc3ccccc23)CC1	10400
Cc1ccc2c(c1)c1c3n2CCN(CC(N)=O)C3CCC1 (configuration not stated)	10200
COc1cccc(S(=O)(=O)N2CC[C@H]3[C@@H](CO)N(C)c4ccc(C#Cc5ccc(F)cc5)cc4[C@H]32)c1	34500
C[C@H]1CCCCO[C@H](CN(C)Cc2ccc(C(F)(F)F)cc2)[C@@H](C)CN([C@@H](C)CO)C(=O)c2cc(NS(=O)(=O)c3ccc(Cl)cc3)ccc2O1	< 260
C[C@@H]1CCCCO[C@H](CN(C)Cc2ccc(C(F)(F)F)cc2)[C@H](C)CN([C@H](C)CO)C(=O)c2cc(NS(=O)(=O)c3cccs3)ccc2O1	< 260
O=C(c1cc([N+](=O)[O-])ccc1N1CCOCC1)N1CCN(c2ccccc2)CC1	< 260
COc1cc(OC)cc(C(=O)NCC(=O)OCC(=O)c2cc(C)n(Cc3ccco3)c2C)c1	< 260
COc1ccccc1C(=O)Nc1nc2ccccc2[nH]1	9810
Cc1ccc(S(=O)(=O)Nc2ccc3c(c2)CC(=O)N([C@H](C)CO)C[C@H](C)[C@H](CN(C)S(=O)(=O)c2ccc(F)cc2)O3)cc1	< 260
CCOC(=O)c1c(-c2ccc(F)cc2)csc1NC(=O)CN1C(=O)NC2(CCCCC2C)C1=O (configuration not stated)	9070
CCOc1ccc(NC(=O)Nc2cc(OCC(F)(F)F)cc(OCC(F)(F)F)c2)cc1	8810
O=C(C[C@H]1CC[C@H]2[C@@H](COC[C@@H](O)CN2Cc2ccc(Oc3ccccc3)cc2)O1)N1CCCCC1	< 260
C[C@@H]1CCCCO[C@H](CN(C)C(=O)C2CCCCC2)[C@@H](C)CN([C@@H](C)CO)C(=O)c2cc(NC(=O)Nc3ccc(F)cc3)ccc2O1	< 260
CC1CN(CC(O)COC(c2ccccc2)c2ccccc2)CC(C)O1 (configuration not stated)	< 260
CCOC(=O)Nc1ccc2c(c1)N(C(=O)CCN(CC)CC)c1ccccc1S2=O (configuration not stated)	< 260

Structure (SMILES)	AC50 [nM]
Cc1nnc(N/N=C/c2cc(C)n(-c3ccc(F)cc3)c2C)n1N	10200
COc1cc(/C=N/O)ccc1OCc1ccc(C(=O)O)cc1	9950
C[C@@H]1CCCCO[C@@H](CN(C)C(=O)Nc2cccc3ccccc23)[C@H](C)CN([C@H](C)CO)C(=O)c2cc(NS(=O)(=O)c3ccccc3)ccc2O1	< 260
COc1ccc(S(=O)(=O)Nc2ccc3c(c2)C(=O)N([C@H](C)CO)C[C@H](C)[C@H](CN(C)Cc2ccc(C(F)(F)F)cc2)OCCCC[C@H](C)O3)cc1	3450
O=C(Cc1nnc(NC(=O)c2ccccc2)s1)N/N=C/c1ccco1	< 260
O=C(Nc1ccccc1)NN(C(=O)CCl)c1ccccc1	8600
C[C@@H]1CCCCO[C@@H](CN(C)C(=O)Nc2cccc3ccccc23)[C@H](C)CN([C@H](C)CO)C(=O)c2cc(NS(=O)(=O)c3ccc(F)cc3)ccc2O1	< 260
C[C@@H]1CN([C@H](C)CO)C(=O)c2cc(NC(=O)Nc3ccc(F)cc3)ccc2O[C@@H](C)CCCCO[C@@H]1CN(C)Cc1ccc2c(c1)OCO2	< 260
Cc1ccc(-c2csc3ncnc(Sc4nnc(CN5CCCCCC5=O)o4)c23)cc1	8670
CCCn1c(C)cc(C(=O)CN2C(=O)c3ccccc3S2(=O)=O)c1C	< 260
O=C1c2cccc3cc([N+](=O)[O-])cc(c23)C(=O)N1CCN1CCCC1	< 260
Cn1c(SCC(=O)c2ccccc2)nnc1-c1ccccn1	< 260
C[C@H](CO)N1C[C@H](C)[C@H](CN(C)S(=O)(=O)c2ccc(Cl)cc2)OCCCC[C@H](C)Oc2ccc(NC(=O)Nc3ccc(C(F)(F)F)cc3)cc2C1=O	< 260
N#Cc1ccc(-c2ccc(C3[C@@H]4CN(C(=O)C5CC5)C[C@H]3N4)cc2)cc1 (some centres not stated)	< 260
CC(C)CCCCCCCCCCCCC(=O)NCC(=O)NC1C(C)OC(Nc2ncnc3nc[nH]c23)C(O)C1O (configuration not stated)	< 260
COc1ccccc1C#Cc1ccc2c(c1)O[C@H](CN(C)Cc1cccnc1)[C@H](C)CN([C@@H](C)CO)S2(=O)=O	3050
C[C@@H]1CN([C@H](C)CO)C(=O)Cc2cc(NC(=O)Nc3ccc(F)cc3)ccc2O[C@H]1CN(C)Cc1ccc(Cl)c(Cl)c1	< 260
COc1cc(-c2cnc3c(NC=O)cc(-c4ccccc4)cn23)cc(OC)c1OC	< 260
Cc1ccc(Cl)cc1N1CCN(C(=O)c2noc(C)c2[N+](=O)[O-])CC1	< 260
